Laboratory results from patent US6384048B1, “Imidazonaphthyridines” (Byk Gulden Lomberg Chemische Fabrik GmbH, priority 1998, dated 2002).

Tests used:
[1] = test system: pentagastrin-stimulated acid secretion of the perfused rat stomach; assay: Secretion-inhibiting action on the perfused rat stomach (pentagastrin-stimulated acid secretion, in vivo); details: anesthetized CD rat, dose 3 μmol/kg i.v.
Description: Testing of the Secretion-inhibiting Action on the Perfused Rat Stomach
In Table A which follows, the influence of the compounds according to the invention on the pentagastrin-stimulated acid secretion of the perfused rat stomach after intravenous administration in vivo is shown.
The abdomen of anesthetized rats (CD rat, female, 200-250 g; 1.5 g/kg i.m. urethane) was opened after tracheotomy by a median upper abdominal incision and a PVC catheter was fixed transorally in the esophagus and another via the pylorus such that the ends of the tube just projected into the gastric lumen. The catheter leading from the pylorus led outwards into the right abdominal wall through a side opening.
After thorough rinsing (about 50-100 ml), warm (37° C.) physiological NaCl solution was continuously passed through the stomach (0.5 ml/min, pH 6.8-6.9; Braun-Unita 1). The pH (pH meter 632, glass electrode EA 147; φ=5 mm, Metrohm) and, by titration with a freshly prepared 0.01 N NaOH solution to pH 7 (Dosimat 665 Metrohm), the secreted HCl were determined in the effluent in each case collected at an interval of 15 minutes.
The gastric secretion was stimulated by continuous infusion of […] (=1.65 ml/h) of i.v. pentagastrin (left femoral vein) about 30 min after the end of the operation (i.e. after determination of 2 preliminary fractions). […]

SMILES	melting point [°C]	Inhibition of acid secretion [1] [%]
CSCCO[C@H]1c2ccn3c(C)c(C)nc3c2N[C@H](c2ccccc2)[C@H]1O [Example 2, (7S,8R,9R)-2,3-dimethyl-8-hydroxy-7-(2-methylthioethyloxy)9-phenyl-7,8,9,10-tetrahydroimidazo[1,2-h][1,7]naphthyridine]	109 to 110	
CSCCO[C@@H]1c2ccn3c(C)c(C)nc3c2N[C@H](c2ccccc2)[C@H]1O [Example 1, (7R,8R,9R)-2,3-dimethyl-8-hydroxy-7-(2-methylthioethyloxy)-9-phenyl-7,8,9,10-tetrahydroimidazo[1,2-h][1,7]naphthyridine]	118 to 119	100
CCS[C@H]1c2ccn3c(C)c(C)nc3c2N[C@H](c2ccccc2)[C@H]1O [Example 6, (7S,8R,9R)-2,3-dimethyl-8-hydroxy-7-(ethylthio)-9-phenyl-7,8,9,10-tetrahydro-imidazo[1,2-h][1,7]naphthyridine]	235 to 236	
Cc1nc2c3c(ccn2c1C)[C@H](OCC[S+](C)[O-])[C@H](O)[C@@H](c1ccccc1)N3 (stereo partly drawn) [Example 4, (7S,8R,9R)-2,3-dimethyl-8-hydroxy-7-(2-methylsulphinylethoxy)-9-phenyl-7,8,9,10-tetrahydroimidazo[1,2-h][1,7]naphthyridine]	85 to 87	
CCS[C@@H]1c2ccn3c(C)c(C)nc3c2N[C@H](c2ccccc2)[C@H]1O [Example 5, (7R,8R,9R)-2,3dimethyl-8-hydroxy-7-(ethylthio)-9-phenyl-7,8,9,10-tetrahydro-imidazo[1,2-h][1,7]naphthyridine]	220 to 223	100
Cc1nc2c3c(ccn2c1C)[C@@H](OCC[S+](C)[O-])[C@H](O)[C@@H](c1ccccc1)N3 (stereo partly drawn) [Example 3, (7R,8R,9R)-2,3-dimethyl-8-hydroxy-7-(2-methylsulphinylethoxy)-9phenyl-7,8,9,10-tetrahydroimidazo[1,2-h][1,7]naphthyridine]	105 to 106	
